The text below walks through data of paper PMC9503212, “A High-Affinity ^64Cu-Labeled Ligand for PET Imaging of Hepsin: Design, Synthesis, and Characterization” (Pharmaceuticals, 2022).

One experiment addresses T1, Recombinant hepsin (Homo sapiens, UniProt P05981).
T1 construct: purchased R&D Systems
The experiment is described as follows: In vitro binding assay (fluorogenic BOC–QAR–AMC substrate), hepsin. The format is biochemical. The following applies: for Ki: 0.3 nM enzyme, 150 μM substrate, Ki by Cheng and Prusoff from IC50, three determinations; for Matriptase/ Hepsin (hepsin selectivity, ratio of Ki values): ratio of Ki values for matriptase and hepsin. On the procedure: Recombinant hepsin (R&D Systems, Minneapolis, MN, USA) was diluted 5.5-fold in TNC buffer (25 mM Tris-HCl, 150 mM NaCl, 5 mM CaCl2, 0.01% Triton X-100, pH 8) and incubated at 37 °C. After 24 h, hepsin was diluted in glycerol to 50%. The stock solution (1.2 μM) was stored at −81 °C and diluted in TNC buffer before use.
(§1) Ligands (0.03 nM–30 µM) were diluted in DMSO (2% final concentration) and mixed with either activated hepsin or matriptase in 96-well plates. The final assay concentration for both hepsin and matriptase in TNC buffer was 0.3 nM. After an incubation period of 30 min at 37 °C, BOC–QAR–AMC substrate (R&D Systems) was added to hepsin and matriptase assay mixtures. The final substrate concentration was 150 μM in a final reaction volume of 100 μL.
(§2) Changes in fluorescence (excitation at 380 nm and emission at 460 nm) were measured at room temperature over 2 h in a BioTek Synergy two-plate reader (Agilent Technologies). Using the GraphPad Prism version 6.02 software (San Diego, CA, USA), a non-linear curve fit was performed to determine the inhibitor IC50s from a plot of the mean reaction velocity versus the inhibitor concentration. The IC50 values represent the average of three experimental determinations (Figure S1). Ki values were calculated using the Cheng and Prusoff equation (Ki = IC50/(1 + [S]/Km)).

The subject of the next experiment is hepsin. Particulars: cited from earlier work.
In another experiment the target is T2, matriptase (Homo sapiens, UniProt Q9Y5Y6).
T2 sequence (Q9Y5Y6 1-855): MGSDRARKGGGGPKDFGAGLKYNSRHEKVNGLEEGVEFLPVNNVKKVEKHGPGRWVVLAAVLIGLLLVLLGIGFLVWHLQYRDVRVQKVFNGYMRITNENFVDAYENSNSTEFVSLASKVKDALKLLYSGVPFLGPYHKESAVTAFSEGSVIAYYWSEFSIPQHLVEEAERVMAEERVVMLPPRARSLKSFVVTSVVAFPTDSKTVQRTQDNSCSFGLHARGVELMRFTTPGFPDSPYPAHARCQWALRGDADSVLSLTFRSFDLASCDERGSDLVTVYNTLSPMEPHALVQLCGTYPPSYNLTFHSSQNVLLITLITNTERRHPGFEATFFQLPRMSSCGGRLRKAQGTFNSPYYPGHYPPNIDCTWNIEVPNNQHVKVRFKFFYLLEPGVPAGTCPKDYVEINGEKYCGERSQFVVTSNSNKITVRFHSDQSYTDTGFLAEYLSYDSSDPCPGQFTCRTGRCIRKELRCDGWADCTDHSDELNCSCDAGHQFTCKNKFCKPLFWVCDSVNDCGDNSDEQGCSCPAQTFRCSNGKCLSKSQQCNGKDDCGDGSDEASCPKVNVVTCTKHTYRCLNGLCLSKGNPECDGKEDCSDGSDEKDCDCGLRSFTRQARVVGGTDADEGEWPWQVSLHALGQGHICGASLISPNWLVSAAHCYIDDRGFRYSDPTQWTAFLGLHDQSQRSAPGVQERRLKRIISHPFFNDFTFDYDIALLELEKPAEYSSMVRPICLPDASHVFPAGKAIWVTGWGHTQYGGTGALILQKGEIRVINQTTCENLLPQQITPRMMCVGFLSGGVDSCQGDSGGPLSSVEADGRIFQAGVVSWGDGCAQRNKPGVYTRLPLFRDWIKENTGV
The experiment can be described thus: In vitro binding assay (fluorogenic BOC–QAR–AMC substrate), matriptase. The class given is biochemical. The following applies: 0.3 nM enzyme, 150 μM substrate, Ki by Cheng and Prusoff from IC50, three determinations. As to the method:
as §1, §2

T1 sequence (P05981 163-417 limits assumed): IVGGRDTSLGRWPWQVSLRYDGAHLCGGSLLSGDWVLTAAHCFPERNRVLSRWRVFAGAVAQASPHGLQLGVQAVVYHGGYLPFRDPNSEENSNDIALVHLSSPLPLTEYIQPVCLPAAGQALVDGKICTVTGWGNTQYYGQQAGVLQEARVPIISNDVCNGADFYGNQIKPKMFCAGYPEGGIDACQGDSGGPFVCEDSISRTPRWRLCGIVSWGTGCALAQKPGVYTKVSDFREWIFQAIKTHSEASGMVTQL
T1 sequence (P05981 1-162 partner limits assumed): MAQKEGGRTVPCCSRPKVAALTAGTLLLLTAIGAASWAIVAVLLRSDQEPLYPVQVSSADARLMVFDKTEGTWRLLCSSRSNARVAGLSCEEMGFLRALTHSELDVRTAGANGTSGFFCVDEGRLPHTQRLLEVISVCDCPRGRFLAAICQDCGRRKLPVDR

As to `CC(=O)N[C@@H](CC(C)C)C(=O)NC(CCCNC(=N)N)C(=O)c1nccs1` (some centres unmarked) [Ac–Leu–Arg–kt, reference compound], the Ki (usually a dissociation constant, usually derived from enzyme kinetics or from competition with a known ligand) on Recombinant hepsin is 7.8 ± 2.8 nM; at hepsin (read-out: Ki hepsin, previous reported value), 22.4 ± 0.5 nM; on matriptase it was 56.5 ± 2.7 nM. Also, on Recombinant hepsin, the “Matriptase/ Hepsin (hepsin selectivity, ratio of Ki values)” value is on record as 7.2. Besides, the “hepsin selectivity (ratio of Ki values for matriptase and hepsin), previous reported value” with hepsin is reported as 14.9.
Consider `CC(C)C[C@H](NC(=O)CCc1cn(CCOCCOCCF)nn1)C(=O)NC(CCCNC(=N)N)C(=O)c1nccs1` (stereo partly drawn) [Ligand 1A, (2S)-2-(3-(1-(2-(2-(2-Fluoroethoxy)ethoxy)ethyl)-1H-1,2,3-triazol-4-yl)propanamido)-N-(5-guanidino-1-oxo-1-(thiazol-2-yl)pentan-2-yl)-4-methylpentanamide], for which, at Recombinant hepsin, the Ki came out at 0.9 ± 0.1 nM and the “Matriptase/ Hepsin (hepsin selectivity, ratio of Ki values)” value stood at 60.6. Moreover, the Ki on matriptase is 54.5 ± 4.9 nM.
The matching figures for `CC(C)C[C@H](NC(=O)CCc1cn(CCOCCOCCF)nn1)C(=O)NC(CCCNC(=N)N)C(=O)c1nccs1` (stereo partly drawn) [Ligand 1B, (2S)-2-(3-(1-(2-(2-(2-Fluoroethoxy)ethoxy)ethyl)-1H-1,2,3-triazol-4-yl)propanamido)-N-(5-guanidino-1-oxo-1-(thiazol-2-yl)pentan-2-yl)-4-methylpentanamide]: 0.5 ± 0.1 nM, 40.0 and 20 ± 0.6 nM.
“^natCu-DOTA-conjugated 1-amino-N-(1-((5-guanidino-1-oxo-1-(thiazol-2-yl)pentan-2-yl)amino)-4-methyl-1-oxopentan-2-yl)-3,6,9,12-tetraoxapentadecan-15-amide [Ligand 3A]”: at Recombinant hepsin, the Ki was determined as 15 ± 0.6 nM and the “Matriptase/ Hepsin (hepsin selectivity, ratio of Ki values)” value is 16.6. In addition, on matriptase, the Ki was determined as 249 ± 12.3 nM.
Turning to “^natCu-DOTA-conjugated 1-amino-N-(1-((5-guanidino-1-oxo-1-(thiazol-2-yl)pentan-2-yl)amino)-4-methyl-1-oxopentan-2-yl)-3,6,9,12-tetraoxapentadecan-15-amide [Ligand 3B]”, on Recombinant hepsin, the Ki worked out at 5.1 ± 0.3 nM and the “Matriptase/ Hepsin (hepsin selectivity, ratio of Ki values)” value came out at 23.5. Also, the Ki on matriptase is 120 ± 3.5 nM.
Take “^natGa-DOTA-conjugated 1-amino-N-(1-((5-guanidino-1-oxo-1-(thiazol-2-yl)pentan-2-yl)amino)-4-methyl-1-oxopentan-2-yl)-3,6,9,12-tetraoxapentadecan-15-amide [Ligand 2A]”: the Ki at Recombinant hepsin came to 14.3 ± 1.2 nM; at matriptase it was 166 ± 8.2 nM. The “Matriptase/ Hepsin (hepsin selectivity, ratio of Ki values)” value on Recombinant hepsin was found to be 11.6.
The matching figures for “^natGa-DOTA-conjugated 1-amino-N-(1-((5-guanidino-1-oxo-1-(thiazol-2-yl)pentan-2-yl)amino)-4-methyl-1-oxopentan-2-yl)-3,6,9,12-tetraoxapentadecan-15-amide [Ligand 2B]”: 5.7 ± 0.2 nM, 68.2 ± 2.4 nM and 12.0.
